{"source": "PubChem BioAssay (NCI)", "experiment_in_all_cases": "NCI anticancer screen, dose series, 48 h", "key": {"T-47D breast": {"test_system": "T-47D breast"}, "SF-268 CNS": {"test_system": "SF-268 CNS"}, "UACC-257 melanoma": {"test_system": "UACC-257 melanoma"}, "SK-OV-3 ovarian": {"test_system": "SK-OV-3 ovarian"}, "M14 melanoma": {"test_system": "M14 melanoma"}, "NCI-H460 lung": {"test_system": "NCI-H460 lung"}, "SK-MEL-5 melanoma": {"test_system": "SK-MEL-5 melanoma"}, "RPMI-8226 leukemia": {"test_system": "RPMI-8226 leukemia"}, "CCRF-CEM leukemia": {"test_system": "CCRF-CEM leukemia"}, "RXF 393 renal": {"test_system": "RXF 393 renal"}}, "note": "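Assay format: 96-well plates, 48-hour exposure. GI50 = concentration required for 50% inhibition of growth. TGI: concentration producing complete growth inhibition.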", "data": [{"smiles": "Cc1ccc2nc3ccccc3c(NCc3ccc(Cl)cc3)c2c1", "values": [{"measurement": "GI50", "setting": "T-47D breast", "value": 7.03, "unit": "µM"}, {"measurement": "TGI", "setting": "T-47D breast", "value": 19.5, "unit": "µM"}, {"measurement": "GI50", "setting": "SF-268 CNS", "value": 6.91, "unit": "µM"}, {"measurement": "TGI", "setting": "SF-268 CNS", "value": 14.2, "unit": "µM"}, {"measurement": "GI50", "setting": "UACC-257 melanoma", "value": 8.57, "unit": "µM"}, {"measurement": "TGI", "setting": "UACC-257 melanoma", "value": 16.2, "unit": "µM"}, {"measurement": "GI50", "setting": "SK-OV-3 ovarian", "value": 7.7, "unit": "µM"}, {"measurement": "TGI", "setting": "SK-OV-3 ovarian", "value": 15.8, "unit": "µM"}, {"measurement": "GI50", "setting": "M14 melanoma", "value": 6.75, "unit": "µM"}, {"measurement": "TGI", "setting": "M14 melanoma", "value": 13.6, "unit": "µM"}, {"measurement": "GI50", "setting": "NCI-H460 lung", "value": 4.02, "unit": "µM"}, {"measurement": "TGI", "setting": "NCI-H460 lung", "value": 11.1, "unit": "µM"}, {"measurement": "GI50", "setting": "SK-MEL-5 melanoma", "value": 6, "unit": "µM"}, {"measurement": "TGI", "setting": "SK-MEL-5 melanoma", "value": 12.3, "unit": "µM"}, {"measurement": "GI50", "setting": "RPMI-8226 leukemia", "value": 1.44, "unit": "µM"}, {"measurement": "TGI", "setting": "RPMI-8226 leukemia", "value": 4.1, "unit": "µM"}, {"measurement": "GI50", "setting": "CCRF-CEM leukemia", "value": 2.02, "unit": "µM"}, {"measurement": "TGI", "setting": "CCRF-CEM leukemia", "value": 8.95, "unit": "µM"}, {"measurement": "GI50", "setting": "RXF 393 renal", "value": 1.98, "unit": "µM"}, {"measurement": "TGI", "setting": "RXF 393 renal", "value": 8.08, "unit": "µM"}]}, {"smiles": "O=C(CCN1CCCC1)Nc1ccc2c(NCc3ccccc3)c3ccccc3nc2c1", "values": [{"measurement": "GI50", "setting": "T-47D breast", "value": 0.562, "unit": "µM"}, {"measurement": "TGI", "setting": "T-47D breast", "value": 2.89, "unit": "µM"}, {"measurement": "GI50", "setting": "SF-268 CNS", "value": 0.457, "unit": "µM"}, {"measurement": "TGI", "setting": "SF-268 CNS", "value": 1.85, "unit": "µM"}, {"measurement": "GI50", "setting": "UACC-257 melanoma", "value": 1.45, "unit": "µM"}, {"measurement": "TGI", "setting": "UACC-257 melanoma", "value": 3.3, "unit": "µM"}, {"measurement": "GI50", "setting": "SK-OV-3 ovarian", "value": 0.43, "unit": "µM"}, {"measurement": "TGI", "setting": "SK-OV-3 ovarian", "value": 2.56, "unit": "µM"}, {"measurement": "GI50", "setting": "M14 melanoma", "value": 0.657, "unit": "µM"}, {"measurement": "TGI", "setting": "M14 melanoma", "value": 2.03, "unit": "µM"}, {"measurement": "GI50", "setting": "NCI-H460 lung", "value": 0.313, "unit": "µM"}, {"measurement": "TGI", "setting": "NCI-H460 lung", "value": 1.07, "unit": "µM"}, {"measurement": "GI50", "setting": "SK-MEL-5 melanoma", "value": 1.31, "unit": "µM"}, {"measurement": "TGI", "setting": "SK-MEL-5 melanoma", "value": 2.61, "unit": "µM"}, {"measurement": "GI50", "setting": "RPMI-8226 leukemia", "value": 0.411, "unit": "µM"}, {"measurement": "GI50", "setting": "CCRF-CEM leukemia", "value": 0.493, "unit": "µM"}, {"measurement": "GI50", "setting": "RXF 393 renal", "value": 0.349, "unit": "µM"}, {"measurement": "TGI", "setting": "RXF 393 renal", "value": 1.38, "unit": "µM"}]}, {"smiles": "NC(=N\\N=C/c1ccc(O)cc1)/C(N)=N\\N=C/c1ccc(O)cc1", "values": [{"measurement": "GI50", "setting": "T-47D breast", "value": 13.6, "unit": "µM"}, {"measurement": "TGI", "setting": "T-47D breast", "value": "> 100", "unit": "µM"}, {"measurement": "GI50", "setting": "SF-268 CNS", "value": 16.4, "unit": "µM"}, {"measurement": "TGI", "setting": "SF-268 CNS", "value": "> 100", "unit": "µM"}, {"measurement": "GI50", "setting": "UACC-257 melanoma", "value": "> 100", "unit": "µM"}, {"measurement": "TGI", "setting": "UACC-257 melanoma", "value": "> 100", "unit": "µM"}, {"measurement": "GI50", "setting": "SK-OV-3 ovarian", "value": 44.8, "unit": "µM"}, {"measurement": "TGI", "setting": "SK-OV-3 ovarian", "value": "> 100", "unit": "µM"}, {"measurement": "GI50", "setting": "M14 melanoma", "value": 5.56, "unit": "µM"}, {"measurement": "TGI", "setting": "M14 melanoma", "value": "> 100", "unit": "µM"}, {"measurement": "GI50", "setting": "NCI-H460 lung", "value": 13.8, "unit": "µM"}, {"measurement": "TGI", "setting": "NCI-H460 lung", "value": "> 100", "unit": "µM"}, {"measurement": "GI50", "setting": "SK-MEL-5 melanoma", "value": 3.06, "unit": "µM"}, {"measurement": "TGI", "setting": "SK-MEL-5 melanoma", "value": 73.1, "unit": "µM"}, {"measurement": "GI50", "setting": "RPMI-8226 leukemia", "value": "> 24.8", "unit": "µM"}, {"measurement": "TGI", "setting": "RPMI-8226 leukemia", "value": "> 100", "unit": "µM"}, {"measurement": "GI50", "setting": "CCRF-CEM leukemia", "value": 0.324, "unit": "µM"}, {"measurement": "TGI", "setting": "CCRF-CEM leukemia", "value": "> 100", "unit": "µM"}, {"measurement": "GI50", "setting": "RXF 393 renal", "value": 84.7, "unit": "µM"}, {"measurement": "TGI", "setting": "RXF 393 renal", "value": "> 100", "unit": "µM"}]}, {"smiles": "C[C@H]1[C@H](C)N1CC(O)Cn1ccnc1[N+](=O)[O-]", "note": "(stereo partly drawn)", "values": [{"measurement": "TGI", "setting": "T-47D breast", "value": "> 100", "unit": "µM"}, {"measurement": "TGI", "setting": "SF-268 CNS", "value": "> 100", "unit": "µM"}, {"measurement": "TGI", "setting": "UACC-257 melanoma", "value": "> 100", "unit": "µM"}, {"measurement": "TGI", "setting": "SK-OV-3 ovarian", "value": "> 100", "unit": "µM"}, {"measurement": "TGI", "setting": "M14 melanoma", "value": "> 100", "unit": "µM"}, {"measurement": "TGI", "setting": "NCI-H460 lung", "value": "> 100", "unit": "µM"}, {"measurement": "TGI", "setting": "SK-MEL-5 melanoma", "value": "> 100", "unit": "µM"}, {"measurement": "TGI", "setting": "RPMI-8226 leukemia", "value": "> 100", "unit": "µM"}, {"measurement": "TGI", "setting": "CCRF-CEM leukemia", "value": "> 100", "unit": "µM"}, {"measurement": "TGI", "setting": "RXF 393 renal", "value": "> 100", "unit": "µM"}]}, {"smiles": "[2H]C([2H])([2H])NC(=O)c1nnc(NC(=O)C2CC2)cc1Nc1cccc(-c2ncn(C)n2)c1OC", "values": [{"measurement": "GI50", "setting": "T-47D breast", "value": 32.4, "unit": "µM"}, {"measurement": "TGI", "setting": "T-47D breast", "value": "> 100", "unit": "µM"}, {"measurement": "GI50", "setting": "SF-268 CNS", "value": 45.7, "unit": "µM"}, {"measurement": "TGI", "setting": "SF-268 CNS", "value": "> 100", "unit": "µM"}, {"measurement": "GI50", "setting": "UACC-257 melanoma", "value": "> 100", "unit": "µM"}, {"measurement": "TGI", "setting": "UACC-257 melanoma", "value": "> 100", "unit": "µM"}, {"measurement": "GI50", "setting": "SK-OV-3 ovarian", "value": 5.02, "unit": "µM"}, {"measurement": "TGI", "setting": "SK-OV-3 ovarian", "value": 48.9, "unit": "µM"}, {"measurement": "GI50", "setting": "M14 melanoma", "value": 9.22, "unit": "µM"}, {"measurement": "TGI", "setting": "M14 melanoma", "value": "> 100", "unit": "µM"}, {"measurement": "GI50", "setting": "NCI-H460 lung", "value": "> 100", "unit": "µM"}, {"measurement": "TGI", "setting": "NCI-H460 lung", "value": "> 100", "unit": "µM"}, {"measurement": "GI50", "setting": "SK-MEL-5 melanoma", "value": 50.2, "unit": "µM"}, {"measurement": "TGI", "setting": "SK-MEL-5 melanoma", "value": "> 100", "unit": "µM"}, {"measurement": "GI50", "setting": "RPMI-8226 leukemia", "value": 14.2, "unit": "µM"}, {"measurement": "TGI", "setting": "RPMI-8226 leukemia", "value": "> 100", "unit": "µM"}, {"measurement": "GI50", "setting": "CCRF-CEM leukemia", "value": 19.8, "unit": "µM"}, {"measurement": "TGI", "setting": "CCRF-CEM leukemia", "value": "> 100", "unit": "µM"}, {"measurement": "GI50", "setting": "RXF 393 renal", "value": 6.04, "unit": "µM"}, {"measurement": "TGI", "setting": "RXF 393 renal", "value": "> 100", "unit": "µM"}]}]}
